In patent US20250092033A1, “HETEROAROMATIC NITROGEN-OXIDE COMPOUND, PREPARATION METHOD THEREFOR, AND USE THEREOF” (BEIJING AVISTONE BIOTECHNOLOGY CO., LTD., priority 2021, published 2025):

Assays:
[1] = biological target: T1, MET D1228N (Homo sapiens, UniProt P08581, D1228N); test: Kinase inhibition experiment (HTRF KinEASE-TK kit), mutant MET D1228N; format: biochemical; conditions: 10 concentrations, 3-fold dilution
T1 construct: purchased Signalchem M52-12IG
Description: (§1) The activity of the compounds was determined by detecting the residual amount of ATP after reacting with wild-type or mutant MET protein kinase by using an HTRF KinEASE-TK kit. […]
(§2) The compounds were determined on the selected kinase, the solvent control was set and a total of 10 concentrations were detected, diluted 3-fold, 2 replicates per concentration.
(§3) 1 volume of 5× kinase reaction buffer and 4 volumes of water; 5 mM MgCl2; 1 mM DTT; 1 mM MnCl2; or 2500 nm SEB.
(§4) 1) 10 nl or 4 μlof the diluted compound was transferred to each well of the reaction plate (784075 or 264706, Greiner or Thermo) with a pipette, the reaction plate was sealed with a sealing plate, and centrifuged at 1000 for 1 minute.
(§5) 2) 2× MET was prepared from 1× enzyme reaction buffer, 5 μl or 2 μl kinase was added to each well of the reaction plate, the reaction plate was sealed with a sealing plate, centrifuged at 1000 g for 30 seconds and incubated at room temperature for 10 min.
(§6) 3) a mixed solution of 2× TK-substrate-biotin and ATP were prepared from 1× enzyme reaction buffer solution, 5 μl or 2 μl TK-substrate-biotin/ATP of the mixed solution was added into a reaction plate, the reaction plate was sealed with a sealing plate, centrifuged at 1000 g for 30 seconds and reacted for 50 minutes or 10 minutes at room temperature.
(§7) 4) a mixed solution of 4× or 2× Sa-XL 665 and TK-antibody-Cryptate were prepared from HTRF detection buffer, 5 or 10 μl of the mixed solution of Sa-XL 665 and TK-antibody-Cryptate was added into each well, centrifuged at 1000 g for 30 seconds, and reacted at room temperature for 1 h.
(§8) 5) the fluorescence signals at 615 nm (cryptate) and 665 nm (XL665) were read with Envision 2104 or TECAN.
(§9) The data was analyzed using GraphPad Prism 6.0 or 7 software, and the dose-response curve was fitted with nonlinear S-curve regression, and the IC50 value was calculated therefrom.
(§10) Enzyme Inhibition Percent (%)=100-(Signalmpd-SignalAve_PC)/(SignalAve_VC-SignalAve_PC)×100

[2] = system: EBC-1 cell line; test: Cell proliferation inhibition experiment (CellTiter-Glo), EBC-1; format: cell-based; conditions: Homo sapiens, CTG, 72 h
Description: (§11) CellTiter-Glo™ live cell detection kit adopts luciferase as the detection substance, and the luciferase needs the participation of ATP in the luminescence process. CellTiter-Glo™ reagent was added into the cell culture medium and the luminescence value was measured. The light signal is in direct proportion to the amount of ATP in the system, ATP is in direct correlation with number of living cells. Therefore, the proliferation of cells can be detected by detecting the content of ATP with CellTiter-Glo kit.
(§12) In the experiment, the proliferation inhibition effect of the prepared compounds on tumor cell lines Hs746T, EBC-1 and H1993 was measured by a celltiter-glo (CTG) method, and 50% inhibition concentration IC50 was calculated.
(§13) The compounds were determined on the selected cells, the solvent control was set and a total of 10 concentrations were detected, 2 replicates per concentration.
(§14) a) Cells in the logarithmic growth phase were harvested and counted by a […]. The cell viability was detected by a trypan blue exclusion method to ensure that the cell viability was over 90%.
(§15) b) The cell concentration was adjusted; 30 μL of cell suspension was added to a 384-well plate respectively.
(§16) c) Cells in a 384-well plate were incubated overnight at 37° C., 5% CO2 and 95% humidity.
(§17) a) 10 times of drug solution was prepared with the highest concentration of 10 mM, 10 concentrations and 3 times dilution, 10 μL of drug solution was added into each well of a 384-well plate inoculated with cells, and three multiple wells were arranged for each drug concentration. DMSO was the blank control.
(§18) b) The cells in the 384-well plate were incubated for a further 72 h at 37° C., 5% CO2 and 95% humidity before CTG analysis.
(§19) a) The CTG reagent was melted and the cell plate was equilibrated to room temperature for 30 min.
(§20) b) An equal volume of CTG solution was added to each well.
(§21) c) Cells were lysed by shaking on an orbital shaker for 5 minutes.
(§22) d) The cell plate was left at room temperature for 20 minutes to stabilize the luminescence signal.
(§23) e) The cold light value was read.
(§24) The data was analyzed by GraphPad Prism 8 software, and the dose-response curve was fitted with nonlinear S-curve regression, and the IC50 value was calculated therefrom.
(§25) Cell viability(%)=(Lumdrugs to be tested-Lumblank control)/(Lumcell control-Lumblank control)×100%.

[3] = system: Hs746T cell line; test: Cell proliferation inhibition experiment (CellTiter-Glo), Hs746T; format: cell-based; conditions: Homo sapiens, Hs 746T, CTG, 72 h
Description: as §11, §12, §13, §14, §15, §16, §17, §18, §19, §20, §21, §22, §23, §24, §25

[4] = biological target: T2, MET F1200I (Homo sapiens, UniProt P08581, F1200I); test: Kinase inhibition experiment (HTRF KinEASE-TK kit), mutant MET F1200I; format: biochemical; conditions: 10 concentrations, 3-fold dilution
T2 construct: purchased Signalchem M52-12GG/Y767-2
T2 sequence (P08581 25-1390 F1200I): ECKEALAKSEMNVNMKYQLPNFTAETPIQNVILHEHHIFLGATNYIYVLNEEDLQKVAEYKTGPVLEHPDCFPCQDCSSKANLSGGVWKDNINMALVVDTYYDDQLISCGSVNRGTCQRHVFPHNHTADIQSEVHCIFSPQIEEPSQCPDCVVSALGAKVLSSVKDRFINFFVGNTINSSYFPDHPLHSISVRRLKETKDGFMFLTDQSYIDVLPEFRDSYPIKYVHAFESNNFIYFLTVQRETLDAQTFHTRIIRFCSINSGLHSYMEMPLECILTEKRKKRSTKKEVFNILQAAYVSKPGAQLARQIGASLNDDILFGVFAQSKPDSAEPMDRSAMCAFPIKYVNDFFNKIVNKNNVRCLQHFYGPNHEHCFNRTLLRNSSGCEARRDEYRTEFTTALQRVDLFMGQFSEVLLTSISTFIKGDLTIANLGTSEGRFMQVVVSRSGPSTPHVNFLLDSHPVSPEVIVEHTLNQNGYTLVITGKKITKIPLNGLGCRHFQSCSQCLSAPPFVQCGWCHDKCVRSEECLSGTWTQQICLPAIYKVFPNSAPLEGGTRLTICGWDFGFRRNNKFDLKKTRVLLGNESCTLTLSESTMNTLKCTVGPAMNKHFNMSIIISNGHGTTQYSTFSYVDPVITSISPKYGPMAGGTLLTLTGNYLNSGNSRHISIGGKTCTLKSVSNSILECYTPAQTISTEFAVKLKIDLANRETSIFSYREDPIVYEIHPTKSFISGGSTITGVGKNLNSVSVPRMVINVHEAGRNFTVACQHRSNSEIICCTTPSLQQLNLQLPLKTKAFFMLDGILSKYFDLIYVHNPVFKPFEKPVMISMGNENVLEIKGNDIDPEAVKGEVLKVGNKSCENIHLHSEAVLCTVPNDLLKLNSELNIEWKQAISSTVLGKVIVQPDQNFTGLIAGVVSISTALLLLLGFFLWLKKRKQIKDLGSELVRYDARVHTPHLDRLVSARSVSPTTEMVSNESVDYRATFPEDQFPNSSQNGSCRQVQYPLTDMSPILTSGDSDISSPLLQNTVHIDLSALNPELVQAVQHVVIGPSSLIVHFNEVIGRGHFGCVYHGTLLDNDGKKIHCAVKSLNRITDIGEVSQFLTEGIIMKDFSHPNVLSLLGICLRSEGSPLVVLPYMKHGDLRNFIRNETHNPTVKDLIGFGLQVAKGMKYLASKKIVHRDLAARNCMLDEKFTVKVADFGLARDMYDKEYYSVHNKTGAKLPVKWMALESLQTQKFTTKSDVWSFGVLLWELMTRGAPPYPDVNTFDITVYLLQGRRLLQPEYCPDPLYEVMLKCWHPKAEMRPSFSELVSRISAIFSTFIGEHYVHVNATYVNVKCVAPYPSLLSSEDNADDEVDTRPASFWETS
Description: as §1, §2, §3, §4, §5, §6, §7, §8, §9, §10

[5] = biological target: T3, wild type (WT) MET kinase (Homo sapiens, UniProt P08581); test: Kinase inhibition experiment (HTRF KinEASE-TK kit), wild-type MET; format: biochemical; conditions: 10 concentrations, 3-fold dilution
T3 construct: purchased Carna 08-151
T3 sequence (P08581 25-1390): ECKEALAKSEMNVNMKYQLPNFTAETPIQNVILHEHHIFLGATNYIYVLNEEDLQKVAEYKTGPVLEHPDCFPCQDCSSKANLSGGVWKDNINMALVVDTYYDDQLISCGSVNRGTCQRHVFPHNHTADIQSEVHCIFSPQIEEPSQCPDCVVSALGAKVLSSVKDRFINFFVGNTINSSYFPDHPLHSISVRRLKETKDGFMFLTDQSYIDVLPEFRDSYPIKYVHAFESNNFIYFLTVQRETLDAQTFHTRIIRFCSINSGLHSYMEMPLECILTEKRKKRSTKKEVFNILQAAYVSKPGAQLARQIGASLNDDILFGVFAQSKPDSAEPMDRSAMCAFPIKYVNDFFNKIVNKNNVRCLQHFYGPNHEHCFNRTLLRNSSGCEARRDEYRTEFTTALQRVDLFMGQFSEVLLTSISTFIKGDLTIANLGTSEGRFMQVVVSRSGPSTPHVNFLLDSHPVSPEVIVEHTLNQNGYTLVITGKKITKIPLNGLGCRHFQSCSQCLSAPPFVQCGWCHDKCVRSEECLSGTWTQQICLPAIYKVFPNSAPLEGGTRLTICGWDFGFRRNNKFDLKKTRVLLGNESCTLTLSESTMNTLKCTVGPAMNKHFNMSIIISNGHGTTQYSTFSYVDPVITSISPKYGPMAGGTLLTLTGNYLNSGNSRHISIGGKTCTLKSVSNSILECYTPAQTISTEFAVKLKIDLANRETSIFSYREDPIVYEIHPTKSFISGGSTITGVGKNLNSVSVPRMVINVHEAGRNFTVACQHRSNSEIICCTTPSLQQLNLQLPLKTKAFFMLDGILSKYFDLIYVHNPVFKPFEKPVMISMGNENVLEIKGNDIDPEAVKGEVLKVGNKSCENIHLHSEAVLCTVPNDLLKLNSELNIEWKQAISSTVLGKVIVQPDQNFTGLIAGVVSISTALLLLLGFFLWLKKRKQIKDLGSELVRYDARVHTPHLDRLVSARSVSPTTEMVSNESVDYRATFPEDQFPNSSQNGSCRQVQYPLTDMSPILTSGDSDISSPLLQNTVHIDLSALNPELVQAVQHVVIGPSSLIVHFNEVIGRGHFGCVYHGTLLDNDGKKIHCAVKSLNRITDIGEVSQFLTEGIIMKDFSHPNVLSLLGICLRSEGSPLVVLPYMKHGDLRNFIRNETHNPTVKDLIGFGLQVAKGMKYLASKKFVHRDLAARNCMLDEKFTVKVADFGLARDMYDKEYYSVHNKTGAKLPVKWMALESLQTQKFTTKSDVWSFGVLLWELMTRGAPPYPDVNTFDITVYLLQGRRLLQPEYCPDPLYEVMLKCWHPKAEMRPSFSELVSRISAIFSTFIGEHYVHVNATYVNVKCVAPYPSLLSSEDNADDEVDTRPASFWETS
Description: as §1, §2, §3, §4, §5, §6, §7, §8, §9, §10

[6] = system: H1993 cell line; test: Cell proliferation inhibition experiment (CellTiter-Glo), H1993; format: cell-based; conditions: Homo sapiens, NCI-H1993, CTG, 72 h
Description: as §11, §12, §13, §14, §15, §16, §17, §18, §19, §20, §21, §22, §23, §24, §25

T1 sequence (P08581 25-1390 D1228N): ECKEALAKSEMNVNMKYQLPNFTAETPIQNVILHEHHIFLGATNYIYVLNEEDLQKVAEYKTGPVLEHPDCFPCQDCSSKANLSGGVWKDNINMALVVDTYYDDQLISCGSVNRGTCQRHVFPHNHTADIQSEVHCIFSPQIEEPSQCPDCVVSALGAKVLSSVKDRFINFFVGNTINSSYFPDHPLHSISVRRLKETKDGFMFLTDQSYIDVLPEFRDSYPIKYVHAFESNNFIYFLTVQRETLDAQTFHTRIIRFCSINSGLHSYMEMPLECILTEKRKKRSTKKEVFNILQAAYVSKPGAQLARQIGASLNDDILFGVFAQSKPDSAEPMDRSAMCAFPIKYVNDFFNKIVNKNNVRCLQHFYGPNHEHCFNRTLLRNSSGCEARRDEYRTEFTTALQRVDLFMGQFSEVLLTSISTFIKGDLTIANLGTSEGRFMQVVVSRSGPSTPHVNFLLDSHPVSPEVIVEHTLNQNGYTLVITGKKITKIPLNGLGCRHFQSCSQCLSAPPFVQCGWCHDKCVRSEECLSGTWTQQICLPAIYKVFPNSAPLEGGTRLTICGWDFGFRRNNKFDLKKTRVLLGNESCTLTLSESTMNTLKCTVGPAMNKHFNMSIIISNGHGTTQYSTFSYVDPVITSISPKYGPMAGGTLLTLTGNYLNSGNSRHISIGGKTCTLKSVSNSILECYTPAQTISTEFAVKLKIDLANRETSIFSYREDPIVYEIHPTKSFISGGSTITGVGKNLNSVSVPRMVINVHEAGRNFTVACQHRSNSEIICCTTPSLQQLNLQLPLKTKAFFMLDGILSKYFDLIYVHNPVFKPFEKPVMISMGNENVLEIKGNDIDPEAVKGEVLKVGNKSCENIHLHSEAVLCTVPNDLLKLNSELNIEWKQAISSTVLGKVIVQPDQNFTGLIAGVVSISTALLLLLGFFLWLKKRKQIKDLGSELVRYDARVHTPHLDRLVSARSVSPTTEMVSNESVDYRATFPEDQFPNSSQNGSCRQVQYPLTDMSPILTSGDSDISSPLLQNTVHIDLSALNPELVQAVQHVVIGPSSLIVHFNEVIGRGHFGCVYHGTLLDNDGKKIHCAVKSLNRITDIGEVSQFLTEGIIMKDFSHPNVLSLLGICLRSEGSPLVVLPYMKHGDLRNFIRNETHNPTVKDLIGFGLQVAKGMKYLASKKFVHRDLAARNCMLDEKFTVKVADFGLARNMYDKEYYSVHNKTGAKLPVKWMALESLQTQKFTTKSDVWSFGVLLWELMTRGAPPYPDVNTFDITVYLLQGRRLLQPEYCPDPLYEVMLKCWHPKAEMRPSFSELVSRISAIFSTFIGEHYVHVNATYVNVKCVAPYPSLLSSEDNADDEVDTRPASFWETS

Structure (SMILES) | IC50 [1] [nM] | IC50 [2] [nM] | IC50 [3] [nM] | IC50 [4] [nM] | IC50 [5] [nM] | IC50 [6] [nM]
O=C(Nc1ccc(Oc2ccnc3[nH]nc(N4CC5(CC(O)C5)C4)c23)c(F)c1)c1cccc(-c2ccc(F)cc2)[n+]1[O-] [Final product 36] | 25.1 | 15.1 | 9.9 | 6.7 | 4 | 
O=C(Nc1ccc(Oc2ccnc3[nH]nc(NCC(CO)CO)c23)c(F)c1)c1cccc(-c2ccc(F)cc2)[n+]1[O-] [Final product 17] | 7.5 |  |  | 5.8 | 1.4 | 68.4
O=C(Nc1ccc(Oc2ccnc3[nH]nc(N4CC(CO)C4)c23)c(F)c1)c1cccc(-c2ccc(F)cc2)[n+]1[O-] [Final product 25] | 20.5 |  |  | 4.3 | 1.9 | 62.2
C[C@H](CO)Nc1n[nH]c2nccc(Oc3ccc(NC(=O)c4ccc(Cl)c(-c5ccc(F)cc5)[n+]4[O-])c(F)c3)c12 [Final product 159] | 14.8 |  |  | 2 | 3 | 78.4
CC(O)C1CCN(c2n[nH]c3nccc(Oc4ccc(NC(=O)c5cccc(-c6ccc(F)cc6)[n+]5[O-])cc4F)c23)CC1 (stereo not drawn) [Final product 31] | 40.7 |  |  | 7.9 | 3 | 35
C[C@H](CO)Nc1n[nH]c2nccc(Oc3ccc(NC(=O)c4ccc(Cl)c(-c5ccc(F)cc5)[n+]4[O-])cc3Cl)c12 [Final product 121] | 19 |  |  | 11.4 | 4.3 | 42.3
CC[C@H](CO)Nc1n[nH]c2nccc(Oc3ccc(NC(=O)c4cccc(-c5ccc(F)cc5)[n+]4[O-])cc3F)c12 [Final product 5] | 12.8 |  |  | 10.8 | 5.2 | 33
O=C(Nc1ccc(Oc2ccnc3[nH]nc(N4CCC[C@@H](CO)C4)c23)c(F)c1)c1cccc(-c2ccc(F)cc2)[n+]1[O-] [Final product 32] | 16.7 |  |  | 10.1 | 4.4 | 30.6
O=C(Nc1ccc(Oc2ccnc3[nH]nc(N4CCC(F)(CO)CC4)c23)c(F)c1)c1cccc(-c2ccc(F)cc2)[n+]1[O-] [Final product 30] | 11.2 |  |  | 5.5 | 1.7 | 50.2
Cc1ccc(C(=O)Nc2ccc(Oc3ccnc4[nH]nc(NCC5(O)CC5)c34)c(F)c2)[n+]([O-])c1-c1ccc(F)cc1 [Final product 70] | 35.5 |  | 24.4 |  | 6.9 | 12
Cc1ccc(C(=O)Nc2ccc(Oc3ccnc4[nH]nc(N[C@H](C)CO)c34)cc2F)[n+]([O-])c1-c1ccc(F)cc1 [Final product 160] | 19.6 |  |  | 12.9 | 5.7 | 
O=C(Nc1ccc(Oc2ccnc3[nH]nc(NC4(CO)CC4)c23)c(F)c1)c1cccc(-c2ccc(F)cc2)[n+]1[O-] [Final product 22] | 25.5 |  |  | 15.5 | 5.9 | 
C[C@H](CO)Nc1n[nH]c2nccc(Oc3ccc(NC(=O)c4ccc(OCC(F)(F)F)c(-c5ccc(F)cc5)[n+]4[O-])cc3Cl)c12 [Final product 142] | 45.1 |  |  | 33 | 18 | 
O=C(Nc1ccc(Oc2ccnc3[nH]nc(N[C@H]4CC[C@@H](O)C4)c23)c(Cl)c1)c1ccc(F)c(-c2ccc(F)cc2)[n+]1[O-] [Final product 119] | 30.2 |  |  | 9.8 | 18 | 
CC(O)C1CN(c2n[nH]c3nccc(Oc4ccc(NC(=O)c5cccc(-c6ccc(F)cc6)[n+]5[O-])cc4Cl)c23)C1 (stereo not drawn) [Final product 107] | 26.8 |  |  | 12.3 | 1.6 | 76.9
CC(O)CNc1n[nH]c2nccc(Oc3ccc(NC(=O)c4cccc(-c5ccc(F)cc5)[n+]4[O-])cc3F)c12 (stereo not drawn) [Final product 8] | 28.4 |  |  | 2.3 | 4.6 | 
C[C@H](CO)Nc1n[nH]c2nccc(Oc3ccc(NC(=O)c4ccc(Cl)c(-c5ccc(Cl)cc5)[n+]4[O-])cc3F)c12 [Final product 65] | 37.4 |  |  | 42.4 | 10.8 | 
O=C(Nc1ccc(Oc2ccnc3[nH]nc(N4CCC[C@H](CO)C4)c23)c(F)c1)c1cccc(-c2ccc(F)cc2)[n+]1[O-] [Final product 33] | 30.5 |  |  | 21.1 | 9.7 | 
C[C@H](CO)Nc1n[nH]c2nccc(Oc3ccc(NC(=O)c4ccc(C5CC5)c(-c5ccc(F)cc5)[n+]4[O-])cc3F)c12 [Final product 81] | 32.8 |  |  | 26 | 10.4 | 
[2H]C([2H])([2H])c1ccc(C(=O)Nc2ccc(Oc3ccnc4[nH]nc(N[C@H](C)CO)c34)c(Cl)c2)[n+]([O-])c1-c1ccc(F)cc1 [Final product 134] | 15.5 |  |  | 28.3 | 3.3 | 
C[C@H](CO)Nc1n[nH]c2nccc(Oc3ccc(NC(=O)c4ccc(C(F)(F)F)c(-c5ccc(F)cc5)[n+]4[O-])cc3F)c12 [Final product 82] | 48.1 |  |  | 29.6 | 17.4 | 
O=C(Nc1ccc(Oc2ccnc3[nH]nc(NCC(O)CO)c23)c(F)c1)c1cccc(-c2ccc(F)cc2)[n+]1[O-] (stereo not drawn) [Final product 15] | 20.1 |  | 21.6 | 6.5 | 1.3 | 39.4
O=C(Nc1ccc(Oc2ccnc3[nH]nc(N4CCC(O)CC4)c23)c(F)c1)c1cccc(-c2ccc(F)cc2)[n+]1[O-] [Final product 26, 2-((3-fluoro-4-((3-(4-hydroxypiperidin-1-yl)-1H-pyrazolo[3,4-b]pyridin-4-yl)oxy)phenyl)carbamoyl)-6-(4-fluorophenyl)pyridine 1-oxide] | 18.1 |  |  | 9.5 | 3.8 | 
O=C(Nc1ccc(Oc2ccnc3[nH]nc(N[C@H]4COC[C@@H]4O)c23)c(Cl)c1)c1cccc(-c2ccc(F)cc2)[n+]1[O-] [Final product 115] | 10.9 |  |  | 6 | 0.8 | 
C[C@H](CO)Nc1n[nH]c2nccc(Oc3ccc(NC(=O)c4ccc(OC(F)F)c(-c5ccc(F)cc5)[n+]4[O-])cc3Cl)c12 [Final product 139] | 18.5 |  |  | 15.3 | 4.5 | 31.1
C[C@H](CO)Cn1ccc2ncnc(Oc3ccc(NC(=O)c4cccc(-c5ccc(F)cc5)[n+]4[O-])cc3F)c21 [Final product 169, (S)-2-((3-fluoro-4-((5-(3-hydroxy-2-methylpropyl)-5H-pyrrolo[3,2-d]pyrimidin-4-yl)oxy)phenyl)carbamoyl)-6-(4-fluorophenyl)pyridine 1-oxide] | 6.9 |  |  | 2.1 | 1.8 | 
